Patent US7569547B2, “Inhibiting furin with polybasic peptides” (Board of Supervisors of Louisiana State University and …, priority 2001, dated 2009)
Residues, ends and D or L forms follow the SMILES beside them. *: point of attachment. CH2Cl = ClC*

How the values were obtained:
furin = furin (Homo sapiens, UniProt P09958); details: literature, cited from earlier work
recombinant mouse furin = target: T1, recombinant mouse furin (Mus musculus, UniProt P23188); experiment: Furin enzyme assay, hydrolysis of pERTKR-MCA at pH 7.0; format: biochemical
T1 construct: truncated N-terminally to the transmembrane domain at His^711 using PCR; myc (C, cleaved yes); hexa-His (C, cleaved yes); made in house; host or cells: DG44 CHO cells, conditioned medium
From the text: Recombinant convertase preparation. The mouse furin clone was a kind gift from K. Nakayama (Fukuoka University School of Medicine, Fukuoka, Japan). The mouse furin cDNA was truncated N-terminally to the transmembrane domain at His^711 using PCR. This PCR product was then subcloned into pcDNA3.1 (−) myc-His (Invitrogen) at the Nhe1 and Xba1 restriction sites. Dihydrofolate-reductase-negative DG44 Chinese Hamster Ovary (CHO) cells (L. Chasin, Columbia University, New York, N.Y.) were transfected using Lipofectin (Life Technologies), and colonies were selected at 37° C. in 5% CO2 in α-MEM (lacking nucleosides) containing 10% well-dialyzed fetal bovine serum (Life Technologies). Conditioned media from colonies were screened using an enzyme assay (see below), and a high-expressing clone was selected. Overexpression of furin was achieved by increasing the methotrexate concentration from 5 nM to 50 μM in five- to ten-fold steps as described in I. Lindberg et al., Methods Neurosci., vol. 23, pp. 94-108 (1995). The amplified lines were tested for increased furin expression by enzyme assay. Once the 50 μM methotrexate level had been reached, cells were split at ratios of 1:6 twice a week. 100 mL of conditioned media (OptiMEM, Life Technologies) containing 100 μg/mL aprotinin (Miles Laboratories, Kankakee, Ill.) was collected from confluent roller bottles every 24 h. The medium was then centrifuged at low speed to remove cells, and the supernatant was stored at −80° C. until use.
Purification of furin: Conditioned medium was thawed, pooled, and diluted 1:3.5 with buffer A (20 mM HEPES, 0.1% Brij 35, 5 mM CaCl2, pH 7.4), and pumped at 40 mL/min through a Sartorius D100 anion exchange membrane. The membrane was washed with 40 mL of buffer A, followed by 40 mL of buffer A containing 50 mM NaCl, and finally by 40 mL of buffer A containing 200 mM NaCl. The fraction eluting with 200 mM NaCl was diluted 1:4 with buffer A and applied to a 1 mL Pharmacia Mono Q HR5/5 anion exchange column at a flow rate of 1 mL/min. Following a 10 mL wash with buffer A, furin was eluted by a linear increase of 0 to 500 mM NaCl in buffer A over 30 mL; and 2 mL fractions were collected. Fractions containing peak activity were pooled, and 200 μL aliquots were subjected to gel permeation chromatography using a Pharmacia Superose 12 column at a flow rate of 0.5 mL/min of buffer A containing 200 mM NaCl. Fractions were assayed for activity as described below; protein content was determined using the Bradford method. All purification steps were performed at 4° C.
(§1) Enzyme Assays and Hexapeptide Library Screening. Enzyme assays for PC1 and PC2 were performed at pH 5.0 using pERTKR-MCA (Peptides International Inc., Louisville, Ky.) as described in E. Apletalina et al., J. Biol. Chem., vol. 273, pp. 26589-26595 (1998). The assay for furin was performed using the same substrate at pH 7.0 in 100 mM HEPES, 5 mM CaCl2, 0.1% Brij 35. All assays were performed at 37° C. in a 96 well fluorometer (Labsystems) at an excitation wavelength of 380 nm with emission monitored at a wavelength of 460 nm. The total volume was 50 μL. Unless otherwise stated, the final substrate concentration for all assays was 200 μM. When used in a particular experiment, the inhibitory peptides were pre-incubated with enzyme for 30 min at room temperature prior to addition of substrate. All assays were performed in duplicate or triplicate.

PC1 [1] = target: T2, PC1 (Homo sapiens, UniProt P29120); details: literature; cited from earlier work
T2 sequence (P29120 111-753): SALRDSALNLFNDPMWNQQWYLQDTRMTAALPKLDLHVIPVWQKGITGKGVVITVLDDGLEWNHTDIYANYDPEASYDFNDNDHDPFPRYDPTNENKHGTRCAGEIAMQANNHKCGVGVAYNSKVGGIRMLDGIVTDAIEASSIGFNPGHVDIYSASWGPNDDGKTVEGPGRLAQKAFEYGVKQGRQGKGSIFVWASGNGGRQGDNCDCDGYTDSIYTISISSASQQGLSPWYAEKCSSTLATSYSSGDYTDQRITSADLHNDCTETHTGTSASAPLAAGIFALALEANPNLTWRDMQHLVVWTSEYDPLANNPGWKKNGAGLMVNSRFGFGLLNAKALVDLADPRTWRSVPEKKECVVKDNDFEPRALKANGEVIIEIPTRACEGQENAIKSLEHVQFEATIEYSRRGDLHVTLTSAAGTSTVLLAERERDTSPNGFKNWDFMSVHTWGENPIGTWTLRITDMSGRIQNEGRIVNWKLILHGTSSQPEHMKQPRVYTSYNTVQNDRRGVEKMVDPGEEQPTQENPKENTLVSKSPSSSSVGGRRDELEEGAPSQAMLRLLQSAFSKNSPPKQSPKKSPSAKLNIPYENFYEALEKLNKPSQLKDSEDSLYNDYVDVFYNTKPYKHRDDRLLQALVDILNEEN

PC2 = target: T3, PC2 (Mus musculus, UniProt P21661); experiment: PC2 enzyme assay, hydrolysis of pERTKR-MCA at pH 5.0; format: biochemical; set-up: made in house
T3 sequence (P21661 109-637): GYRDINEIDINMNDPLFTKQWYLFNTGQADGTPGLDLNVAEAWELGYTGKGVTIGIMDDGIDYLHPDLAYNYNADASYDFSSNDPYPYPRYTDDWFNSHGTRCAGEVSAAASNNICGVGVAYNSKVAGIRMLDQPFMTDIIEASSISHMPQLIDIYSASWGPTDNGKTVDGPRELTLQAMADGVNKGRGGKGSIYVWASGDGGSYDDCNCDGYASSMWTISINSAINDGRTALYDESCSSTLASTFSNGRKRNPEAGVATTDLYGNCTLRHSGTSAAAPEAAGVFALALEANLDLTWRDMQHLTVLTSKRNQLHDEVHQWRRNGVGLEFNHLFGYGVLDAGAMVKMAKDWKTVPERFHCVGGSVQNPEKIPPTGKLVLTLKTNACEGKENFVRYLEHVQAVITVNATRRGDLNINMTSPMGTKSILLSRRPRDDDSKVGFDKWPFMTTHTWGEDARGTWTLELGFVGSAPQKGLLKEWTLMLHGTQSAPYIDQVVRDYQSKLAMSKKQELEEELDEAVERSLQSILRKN
Protocol: (§2) The proprotein convertases PC1 and PC2 were prepared by ion exchange chromatography as described in G. Frenette et al., Biochim. Biophys. Acta., vol. 1334, pp. 109-115 (1997).
as §1

PC1 [2] = target: T4, PC1 (Mus musculus, UniProt P63239); experiment: biochemical; format: biochemical
T4 construct: made in house
T4 sequence (P63239 111-753): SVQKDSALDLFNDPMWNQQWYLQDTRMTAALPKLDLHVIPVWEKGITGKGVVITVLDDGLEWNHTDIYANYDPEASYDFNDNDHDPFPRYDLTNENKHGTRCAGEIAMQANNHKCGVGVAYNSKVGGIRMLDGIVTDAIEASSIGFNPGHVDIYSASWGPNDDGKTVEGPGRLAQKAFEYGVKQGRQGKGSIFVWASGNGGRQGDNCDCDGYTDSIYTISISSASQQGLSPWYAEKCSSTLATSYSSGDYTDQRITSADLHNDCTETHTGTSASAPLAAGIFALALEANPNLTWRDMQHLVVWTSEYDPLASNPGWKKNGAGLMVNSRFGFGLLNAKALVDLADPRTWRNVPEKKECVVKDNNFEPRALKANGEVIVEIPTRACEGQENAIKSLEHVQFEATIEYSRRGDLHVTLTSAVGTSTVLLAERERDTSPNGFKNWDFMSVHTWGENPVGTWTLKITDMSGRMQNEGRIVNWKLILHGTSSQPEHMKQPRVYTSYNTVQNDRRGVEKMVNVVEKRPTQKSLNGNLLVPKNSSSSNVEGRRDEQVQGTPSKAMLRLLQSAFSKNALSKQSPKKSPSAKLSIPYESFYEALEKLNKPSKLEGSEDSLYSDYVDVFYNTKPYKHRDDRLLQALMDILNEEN
Protocol: as §2, §1

PACE4 = target: T5, PACE4 (Rattus norvegicus, UniProt Q63415); experiment: PACE4 enzyme assay, hydrolysis of pERTKR-MCA; format: biochemical
T5 construct: made in house; host or cells: stably transfected hEK-293 cells (gift of R. E. Mains), conditioned medium
T5 sequence (Q63415 133-937): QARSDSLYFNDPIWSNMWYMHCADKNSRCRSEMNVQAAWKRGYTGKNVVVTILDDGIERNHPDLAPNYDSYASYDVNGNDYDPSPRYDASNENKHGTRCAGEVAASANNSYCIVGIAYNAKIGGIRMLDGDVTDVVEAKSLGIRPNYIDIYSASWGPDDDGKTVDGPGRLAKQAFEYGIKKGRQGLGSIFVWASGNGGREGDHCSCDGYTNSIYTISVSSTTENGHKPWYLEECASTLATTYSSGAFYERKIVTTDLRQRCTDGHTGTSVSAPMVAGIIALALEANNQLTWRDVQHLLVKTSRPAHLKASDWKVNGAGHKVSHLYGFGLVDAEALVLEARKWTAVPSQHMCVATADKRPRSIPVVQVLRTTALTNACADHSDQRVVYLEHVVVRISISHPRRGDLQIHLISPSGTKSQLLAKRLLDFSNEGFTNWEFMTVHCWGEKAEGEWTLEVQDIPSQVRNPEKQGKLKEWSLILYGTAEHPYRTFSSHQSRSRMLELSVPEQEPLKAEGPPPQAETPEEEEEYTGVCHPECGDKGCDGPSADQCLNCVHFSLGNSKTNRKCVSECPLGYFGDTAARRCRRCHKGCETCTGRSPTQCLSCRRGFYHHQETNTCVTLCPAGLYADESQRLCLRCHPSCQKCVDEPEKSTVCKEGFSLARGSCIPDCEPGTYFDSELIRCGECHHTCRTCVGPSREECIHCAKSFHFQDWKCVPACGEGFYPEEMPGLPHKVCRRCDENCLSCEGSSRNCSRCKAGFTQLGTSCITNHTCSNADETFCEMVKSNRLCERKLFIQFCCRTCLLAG
Protocol: The proprotein convertase PACE4 was partially purified from an overnight-conditioned medium of stably transfected hEK-293 human embryonic kidney cells (a generous gift of R. E. Mains, Johns Hopkins University School of Medicine, Baltimore, Md.). Briefly, 100 mL of conditioned medium (OptiMEM containing 100 μg/mL aprotinin) was loaded onto an Econo-Pac Q (Bio-Rad) column at 4 mL/min, washed with 10 mL of buffer A, and then eluted with a linear gradient of buffer A containing 500 mM NaCl over 50 mL. The active fractions were then diluted 1:4 with buffer A prior to loading onto a Mono Q column (Pharmacia) at 1 mL/min. The PACE4 was eluted with a linear gradient of buffer A containing 500 mM NaCl over 10 mL. The resulting active fractions were then pooled and stored at −80° C. until use.
as §1

Chain of furin (P09958 108-794): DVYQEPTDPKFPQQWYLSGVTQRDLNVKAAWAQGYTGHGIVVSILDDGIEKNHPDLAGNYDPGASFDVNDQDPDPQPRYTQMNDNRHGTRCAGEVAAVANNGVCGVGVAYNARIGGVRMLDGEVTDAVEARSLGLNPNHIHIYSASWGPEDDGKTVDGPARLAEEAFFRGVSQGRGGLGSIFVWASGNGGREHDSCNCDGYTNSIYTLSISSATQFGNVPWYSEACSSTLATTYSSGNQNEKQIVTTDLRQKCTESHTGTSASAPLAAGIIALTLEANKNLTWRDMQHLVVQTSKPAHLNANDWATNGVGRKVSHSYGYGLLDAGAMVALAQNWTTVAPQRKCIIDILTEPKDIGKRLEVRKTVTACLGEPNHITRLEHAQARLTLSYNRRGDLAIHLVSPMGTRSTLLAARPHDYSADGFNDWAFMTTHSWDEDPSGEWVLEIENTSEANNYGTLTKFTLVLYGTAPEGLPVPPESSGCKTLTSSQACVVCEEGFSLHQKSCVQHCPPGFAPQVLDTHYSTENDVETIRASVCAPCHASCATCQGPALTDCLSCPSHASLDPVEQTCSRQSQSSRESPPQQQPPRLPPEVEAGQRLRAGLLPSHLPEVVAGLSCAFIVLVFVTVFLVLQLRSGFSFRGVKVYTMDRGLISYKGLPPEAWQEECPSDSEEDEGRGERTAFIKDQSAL
T1 sequence (P23188 108-714 limits assumed): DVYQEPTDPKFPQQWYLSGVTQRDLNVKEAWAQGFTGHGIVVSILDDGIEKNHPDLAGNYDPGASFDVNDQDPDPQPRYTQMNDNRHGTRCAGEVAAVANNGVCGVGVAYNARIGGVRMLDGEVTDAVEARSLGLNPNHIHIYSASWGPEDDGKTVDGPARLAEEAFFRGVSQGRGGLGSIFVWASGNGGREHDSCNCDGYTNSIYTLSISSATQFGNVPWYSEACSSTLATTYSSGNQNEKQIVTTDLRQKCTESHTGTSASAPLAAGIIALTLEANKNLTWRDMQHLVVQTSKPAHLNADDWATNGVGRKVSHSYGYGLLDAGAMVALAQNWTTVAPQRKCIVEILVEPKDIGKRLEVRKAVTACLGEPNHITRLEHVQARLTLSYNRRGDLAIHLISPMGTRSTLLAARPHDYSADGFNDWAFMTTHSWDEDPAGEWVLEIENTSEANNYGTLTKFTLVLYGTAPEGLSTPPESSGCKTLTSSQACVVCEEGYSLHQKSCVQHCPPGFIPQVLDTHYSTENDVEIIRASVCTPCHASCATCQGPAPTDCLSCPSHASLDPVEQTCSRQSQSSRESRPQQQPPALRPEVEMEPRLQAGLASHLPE

In the case of “α1-PDX: α1-antitrypsin variant with reactive site loop bioengineered to contain a minimal furin consensus sequence [reference compound]”, the inhibition of furin (furin) is listed as “sub-nanomolar range” and the inhibition of furin (recombinant mouse furin; nanomolar α1-PDX concentrations, validation of enzyme preparation) is listed as “strongly inhibited”.

In the case of CC(=O)N[C@@H](CC(C)C)C(=O)N[C@@H](CC(C)C)C(=O)N[C@@H](CCCNC(=N)N)C(=O)N[C@H](C(=O)N[C@@H](CCCCN)C(=O)N[C@@H](CCCNC(=N)N)C(N)=O)C(C)C [Ac-LLRVKR-NH2], the Ki (recombinant mouse furin) is given as 3400 ± 100 nM, the “Ki / inhibition of PC1, in words” value (PC1 [1]) is given as “nanomolar inhibitor” and the Ki (PC2) is given as 1000 ± 80 nM.

In the case of decanoyl-RVKR-CH2-AVG-NH2, the Ki (furin; read-out: Ki against furin) is listed as 3.4 nM.

With N=C(N)NCCC[C@H](NC(=O)[C@H](CCCNC(=N)N)NC(=O)[C@H](CCCNC(=N)N)NC(=O)[C@@H](N)CCCNC(=N)N)C(=O)O [Tetra-L-arginine] (H-RRRR-OH) the Ki (PC1 [2]) was greater than 200000 nM, the “inhibition of PC1” value (PC1 [2]; μM concentrations) was “not inhibited” and the Ki (PACE4) was greater than 200000 nM. For the same molecule, the “inhibition of PACE4” value (PACE4; mM concentrations) was “not found to inhibit even at mM concentrations”.

For “Ac-YEKERSKR-CH2Cl (SMILES CC(=O)N[C@@H](Cc1ccc(O)cc1)C(=O)N[C@@H](CCC(=O)O)C(=O)N[C@@H](CCCCN)C(=O)N[C@@H](CCC(=O)O)C(=O)N[C@@H](CCCNC(=N)N)C(=O)N[C@@H](CO)C(=O)N[C@@H](CCCCN)C(=O)N[C@@H](CCCNC(=N)N)C(=O)CCl) [reference compound]”, the “Ki against furin, in words” value (furin) is listed as “low nM” and the “Ki / inhibition of PC1, in words” value (PC1 [1]) is listed as “low nM”.
